Source: US20090312367A1, “COMBINATION OF MODAFINIL AND AN ANTAGONIST OR INVERSE AGONIST OF THE H3 RECEPTOR” (Bioprojet, priority 2006, published 2009)

Tested on: cats with MPTP-induced parkinsonism
Test: Parkinson's disease model: wakefulness in cats with MPTP-induced parkinsonism
Format: in vivo
Details: MPTP-treated cats displaying sleepiness
Text: The inventors also investigated the combination of 1-{3-[3-(4-chlorophenyl)propoxy]propyl}piperidine and modafinil on wakefulness in cats with MPTP-induced parkinsonism. MPTP is a neurotoxin which selectively destroys dopaminergic neurons in the mesencephalon. MPTP-treated animals display sleepiness similar to that seen in many patients.

NC(=O)C[S+]([O-])C(c1ccccc1)c1ccccc1 (stereo not shown) [modafinil, 2-benzhydrylsulfinylthanamide] was tested, and the wakefulness was “only a modest improvement in wakefulness”.
